Results: patent US9840509B2, “Heterocyclic compounds” (CADILA HEALTHCARE LIMITED, priority 2014, dated 2017)

What was measured:
[1] = target: T1, CYP 1A2 (Homo sapiens, UniProt P05177); experiment: CYP inhibition in human liver microsomes, 1A2; format: in vitro ADME; conditions: pH 7.4, @ 10 μM concn
T1 construct: from tissue; host or cells: human liver microsomes
T1 sequence (P05177 1-516): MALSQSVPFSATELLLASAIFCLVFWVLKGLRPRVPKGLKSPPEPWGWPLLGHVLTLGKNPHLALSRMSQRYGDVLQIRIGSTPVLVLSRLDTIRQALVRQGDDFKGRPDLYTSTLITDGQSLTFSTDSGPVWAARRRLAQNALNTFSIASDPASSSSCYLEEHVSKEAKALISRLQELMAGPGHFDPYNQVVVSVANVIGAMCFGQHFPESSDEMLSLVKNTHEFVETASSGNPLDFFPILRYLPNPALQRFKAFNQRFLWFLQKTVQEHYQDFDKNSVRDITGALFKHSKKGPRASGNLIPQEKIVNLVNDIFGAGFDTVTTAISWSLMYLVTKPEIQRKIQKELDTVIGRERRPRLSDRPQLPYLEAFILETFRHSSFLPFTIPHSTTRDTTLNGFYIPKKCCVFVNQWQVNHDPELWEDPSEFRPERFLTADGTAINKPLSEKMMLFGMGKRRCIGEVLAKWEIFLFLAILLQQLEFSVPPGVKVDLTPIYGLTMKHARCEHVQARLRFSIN
Outline: (§1)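 Test compounds at […] and 10 μM were incubated in duplicate with human liver microsomes, probe substrate and 1 mM NADPH in 100 mM phosphate buffer pH 7.4 at 37° C. Reactions were stopped with acetonitrile containing internal standard, and the marker-reaction metabolite was quantified by LC-MS/MS.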

[2] = target: T2, CYP 3A4 (Homo sapiens, UniProt P08684); experiment: CYP inhibition in human liver microsomes, 3A4; format: in vitro ADME; conditions: pH 7.4, @ 10 μM concn
T2 construct: from tissue; host or cells: human liver microsomes
T2 sequence (P08684 whole entry): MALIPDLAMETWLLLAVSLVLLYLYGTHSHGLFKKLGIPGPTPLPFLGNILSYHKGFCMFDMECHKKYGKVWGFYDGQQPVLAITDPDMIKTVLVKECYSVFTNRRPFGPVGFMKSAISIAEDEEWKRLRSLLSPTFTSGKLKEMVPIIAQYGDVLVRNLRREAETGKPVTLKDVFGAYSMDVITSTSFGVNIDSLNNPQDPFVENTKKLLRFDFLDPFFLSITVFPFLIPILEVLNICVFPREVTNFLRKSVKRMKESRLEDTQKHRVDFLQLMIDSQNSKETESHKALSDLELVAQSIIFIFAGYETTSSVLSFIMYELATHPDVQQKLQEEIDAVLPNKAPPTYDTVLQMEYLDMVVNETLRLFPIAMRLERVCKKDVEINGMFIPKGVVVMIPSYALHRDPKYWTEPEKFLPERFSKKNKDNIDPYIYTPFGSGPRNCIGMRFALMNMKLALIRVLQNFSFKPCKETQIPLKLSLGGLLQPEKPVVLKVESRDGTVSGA
Outline: as §1

[3] = target: T3, CYP 2C8 (Homo sapiens, UniProt P10632); experiment: CYP inhibition in human liver microsomes, 2C8; format: in vitro ADME; conditions: pH 7.4, @ 10 μM concn
T3 construct: from tissue; host or cells: human liver microsomes
T3 sequence (P10632 1-490): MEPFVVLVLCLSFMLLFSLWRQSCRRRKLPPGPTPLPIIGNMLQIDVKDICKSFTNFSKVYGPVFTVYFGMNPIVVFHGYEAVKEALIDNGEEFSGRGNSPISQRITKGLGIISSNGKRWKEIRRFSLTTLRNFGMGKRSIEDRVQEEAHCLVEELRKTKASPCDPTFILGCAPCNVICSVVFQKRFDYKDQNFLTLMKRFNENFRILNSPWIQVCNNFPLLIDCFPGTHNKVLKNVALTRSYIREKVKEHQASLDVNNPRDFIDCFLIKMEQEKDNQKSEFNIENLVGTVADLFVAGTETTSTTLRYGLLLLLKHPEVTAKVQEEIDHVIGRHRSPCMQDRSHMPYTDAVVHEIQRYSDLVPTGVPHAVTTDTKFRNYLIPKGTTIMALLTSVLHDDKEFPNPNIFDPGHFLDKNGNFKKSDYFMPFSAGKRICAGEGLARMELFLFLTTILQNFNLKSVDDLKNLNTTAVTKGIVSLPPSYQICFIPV
Outline: as §1

[4] = target: T4, CYP 2D6 (Homo sapiens, UniProt P10635); experiment: CYP inhibition in human liver microsomes, 2D6; format: in vitro ADME; conditions: pH 7.4, @ 10 μM concn
T4 construct: from tissue; host or cells: human liver microsomes
T4 sequence (P10635 whole entry): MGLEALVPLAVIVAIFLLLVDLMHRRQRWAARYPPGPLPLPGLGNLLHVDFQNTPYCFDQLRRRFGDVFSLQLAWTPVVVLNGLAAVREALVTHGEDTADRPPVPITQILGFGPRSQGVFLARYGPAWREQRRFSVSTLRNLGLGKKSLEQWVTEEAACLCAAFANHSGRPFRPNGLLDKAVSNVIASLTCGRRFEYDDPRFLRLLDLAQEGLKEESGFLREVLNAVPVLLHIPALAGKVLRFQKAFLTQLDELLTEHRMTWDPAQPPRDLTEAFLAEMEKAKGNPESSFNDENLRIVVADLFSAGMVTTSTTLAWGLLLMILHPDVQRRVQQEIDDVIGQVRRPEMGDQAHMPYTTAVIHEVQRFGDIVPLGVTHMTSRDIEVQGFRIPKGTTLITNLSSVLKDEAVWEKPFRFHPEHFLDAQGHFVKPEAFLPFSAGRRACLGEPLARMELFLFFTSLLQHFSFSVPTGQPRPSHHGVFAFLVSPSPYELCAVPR
Outline: as §1

[5] = target: T5, recombinant purified human BTK (Homo sapiens, UniProt Q06187); experiment: In vitro BTK kinase assay on ADP Glo platform; format: biochemical; conditions: 2 hr room temperature, read-out: In-vitro BTK inhibitory activity: IC50
T5 construct: purchased SignalChem, USA
T5 sequence (Q06187 whole entry): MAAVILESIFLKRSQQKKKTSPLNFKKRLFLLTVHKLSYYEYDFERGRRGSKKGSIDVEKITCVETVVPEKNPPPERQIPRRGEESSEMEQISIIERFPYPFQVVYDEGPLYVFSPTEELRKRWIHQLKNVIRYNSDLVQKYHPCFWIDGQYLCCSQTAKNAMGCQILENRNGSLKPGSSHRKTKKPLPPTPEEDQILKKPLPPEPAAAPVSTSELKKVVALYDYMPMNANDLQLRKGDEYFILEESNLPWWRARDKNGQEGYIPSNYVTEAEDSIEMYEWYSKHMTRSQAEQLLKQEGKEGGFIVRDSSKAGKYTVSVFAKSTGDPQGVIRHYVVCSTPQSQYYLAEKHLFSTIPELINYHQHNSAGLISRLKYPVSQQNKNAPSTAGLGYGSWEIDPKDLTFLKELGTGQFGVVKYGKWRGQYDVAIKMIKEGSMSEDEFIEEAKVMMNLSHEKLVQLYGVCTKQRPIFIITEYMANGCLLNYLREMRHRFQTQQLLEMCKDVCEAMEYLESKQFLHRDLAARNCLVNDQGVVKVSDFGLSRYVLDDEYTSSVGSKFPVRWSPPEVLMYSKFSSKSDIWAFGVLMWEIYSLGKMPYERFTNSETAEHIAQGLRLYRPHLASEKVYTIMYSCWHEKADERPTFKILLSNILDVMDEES
Outline: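 Recombinant human BTK (3 ng/reaction) with compound dilutions in Tris pH 7.5, MgCl2/MnCl2, BSA, DTT; started with 50 µM ATP (final) and polyGln4Tyr1 substrate, 2 h at room temperature. ADP formed detected by ADP-Glo luminescence; IC50 by nonlinear fit versus uninhibited enzyme as 100%.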

[6] = target: T6, CYP 2C9 (Homo sapiens, UniProt P11712); experiment: CYP inhibition in human liver microsomes, 2C9; format: in vitro ADME; conditions: pH 7.4, @ 10 μM concn
T6 construct: from tissue; host or cells: human liver microsomes
T6 sequence (P11712 whole entry): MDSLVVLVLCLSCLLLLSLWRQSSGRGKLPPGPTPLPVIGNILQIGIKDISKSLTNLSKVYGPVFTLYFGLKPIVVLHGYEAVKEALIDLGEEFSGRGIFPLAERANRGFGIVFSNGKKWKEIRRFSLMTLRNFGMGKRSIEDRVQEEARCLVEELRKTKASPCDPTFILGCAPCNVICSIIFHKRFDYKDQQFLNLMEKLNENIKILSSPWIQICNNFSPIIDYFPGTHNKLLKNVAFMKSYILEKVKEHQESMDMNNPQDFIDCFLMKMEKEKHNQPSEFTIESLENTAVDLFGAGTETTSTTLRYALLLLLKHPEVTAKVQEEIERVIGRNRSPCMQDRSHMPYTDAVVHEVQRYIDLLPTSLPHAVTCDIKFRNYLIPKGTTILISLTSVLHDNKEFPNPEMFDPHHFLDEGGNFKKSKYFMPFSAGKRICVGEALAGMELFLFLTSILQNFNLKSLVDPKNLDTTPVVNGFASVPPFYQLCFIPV
Outline: as §1

[7] = target: T7, CYP 2C19 (Homo sapiens, UniProt P33261); experiment: CYP inhibition in human liver microsomes, 2C19; format: in vitro ADME; conditions: pH 7.4, @ 10 μM concn
T7 construct: from tissue; host or cells: human liver microsomes
T7 sequence (P33261 whole entry): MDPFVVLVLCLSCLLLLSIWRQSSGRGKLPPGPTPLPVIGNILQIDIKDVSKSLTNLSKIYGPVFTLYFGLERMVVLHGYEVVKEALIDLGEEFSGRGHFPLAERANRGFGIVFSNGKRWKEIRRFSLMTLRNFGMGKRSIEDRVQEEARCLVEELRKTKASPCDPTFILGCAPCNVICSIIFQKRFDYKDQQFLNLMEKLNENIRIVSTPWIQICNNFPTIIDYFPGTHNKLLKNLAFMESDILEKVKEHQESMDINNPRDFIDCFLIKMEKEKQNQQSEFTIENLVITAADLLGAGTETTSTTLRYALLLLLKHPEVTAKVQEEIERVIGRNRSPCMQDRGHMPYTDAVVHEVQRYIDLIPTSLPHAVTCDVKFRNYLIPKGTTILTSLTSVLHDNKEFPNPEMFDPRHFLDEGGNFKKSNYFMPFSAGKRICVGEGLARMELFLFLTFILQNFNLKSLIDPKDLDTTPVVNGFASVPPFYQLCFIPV
Outline: as §1

Row | inhibition at 10 μM [1] [%] | inhibition at 10 μM [2] [%] | inhibition at 10 μM [3] [%] | inhibition at 10 μM [4] [%] | IC50 [5] [nM] | inhibition at 10 μM [6] [%] | inhibition at 10 μM [7] [%] | SMILES
1 | < 50 | < 50 | < 50 | < 50 | 8 | > 50 | < 50 | C=CC(=O)N1CC2CN(c3ccc(Cn4nc(-c5ccc(Oc6ccccc6)cc5)c5c(N)ncnc54)cn3)CC2C1 (stereo not shown) [Compound 3, 1-(5-(5-((4-amino-3-(4-phenoxyphenyl)-1H-pyrazolo[3,4-d]pyrimidin-1-yl)methyl)pyridin-2-yl)hexahydropyrrolo[3,4-c]pyrrol-2(1H)-yl)prop-2-en-1-one]
2 | < 50 | > 50 | > 50 | < 50 | 100 | > 50 | < 50 | CN(C)C/C=C/C(=O)N1CC2CC(n3nc(-c4ccc(C(=O)Nc5cc(C(F)(F)F)ccn5)cc4)c4c(N)ncnc43)CC2C1 (stereo not shown) [Compound 51, (E)-4-(4-amino-1-(2-(4-(dimethylamino)but-2-enoyl)octahydrocyclopenta [c]pyrrol-5-yl)-1H-pyrazolo[3,4-d]pyrimidin-3-yl)-N-(4-(trifluoromethyl)pyridine-2-yl)benzamide]
3 | < 50 | < 50 | < 50 | < 50 | 1.2 | < 50 | < 50 | C=CC(=O)N1CC2CC(n3nc(-c4ccc(C(=O)Nc5cc(C)ccn5)c(OC)c4)c4c(N)ncnc43)CC2C1 (stereo not shown) [Compound 29, 4-(1-(2-acryloyloctahydrocyclopenta[c]pyrrol-5-yl)-4-amino-1H-pyrazolo[3,4-d]pyrimidin-3-yl)-2-methoxy-N-(4-methylpyridin-2-yl)benzamide]
4 | < 50 | < 50 | < 50 | < 50 | 1.6 | < 50 | < 50 | C=CC(=O)N1CC2CC(n3c(Br)c(-c4ccc(Oc5ccccc5)cc4)c4c(N)ncnc43)CC2C1 (stereo not shown) [Compound 27, 1-(5-(4-amino-6-bromo-5-(4-phenoxyphenyl)-7H-pyrrolo[2,3-d]pyrimidin-7-yl)hexahydrocyclopenta[c]pyrrol-2(1H)-yl)prop-2-en-1-one]
5 | < 50 | < 50 | < 50 | < 50 | 2.5 | < 50 | < 50 | CN(C)C/C=C/C(=O)N1CC2CC(n3nc(-c4ccc(C(=O)Nc5cnccn5)cc4)c4c(N)ncnc43)CC2C1 (stereo not shown) [Compound 49, (E)-4-(4-amino-1-(2-(4-(dimethylamino)but-2-enoyl)octahydrocyclopenta [c]pyrrol-5-yl)-1H-pyrazolo[3,4-d]pyrimidin-3-yl)-N-(pyrazin-2-yl)benzamide]
6 | < 50 | < 50 | < 50 | < 50 | 3 | < 50 | < 50 | CN(C)C/C=C/C(=O)N1CC2CC(n3nc(-c4ccc(Oc5ccccn5)cc4)c4c(N)ncnc43)CC2C1 (stereo not shown) [Compound 47, (E)-1-(5-(4-amino-3-(4-(pyridin-2-yloxy)phenyl)-1H-pyrazolo[3,4-d]pyrimidin-1-yl)hexahydrocyclopenta[c]pyrrol-2(1H)-yl)-4-(dimethylamino)but-2-en-1-one]
7 | < 50 | < 50 | < 50 | < 50 | 1.8 | < 50 | > 50 | C=CC(=O)N1CC2CC(n3nc(-c4ccc(C(=O)Nc5ccccn5)cc4)c4c(N)ncnc43)CC2C1 (stereo not shown) [Compound 13, 4-(1-(2-acryloyloctahydrocyclopenta[c]pyrrol-5-yl)-4-amino-1H-pyrazolo[3,4-d]pyrimidin-3-yl)-N-(pyridin-2-yl)benzamide]
8 | < 50 | > 50 | > 50 | > 50 | 25 | < 50 | < 50 | C=CC(=O)N1CC2CC(n3nc(-c4ccc5nc(OC)sc5c4)c4c(N)ncnc43)CC2C1 (stereo not shown) [Compound 10, 1-(5-(4-amino-3-(2-methoxybenzo[d]thiazol-6-yl)-1H-pyrazolo[3,4-d]pyrimidin-1-yl)hexahydrocyclopenta[c]pyrrol-2(1H)-yl)prop-2-en-1-one]
9 | < 50 | > 50 | < 50 | < 50 | 16 | > 50 | < 50 | N#C/C(=C\C1CC1)C(=O)N1CC2CC(n3nc(-c4ccc(Oc5ccccc5)cc4)c4c(N)ncnc43)CC2C1 (stereo not shown) [Compound 28, (E)-2-(5-(4-amino-3-(4-phenoxyphenyl)-1H-pyrazolo[3,4-d]pyrimidin-1-yl)octahydrocyclopenta[c]pyrrole-2-carbonyl)-3-cyclopropylacrylonitrile]
10 | < 50 | < 50 | < 50 | < 50 | 4 | < 50 | < 50 | C=CC(=O)N1CC2CC(n3nc(-c4ccc5nc(-c6ccccc6)oc5c4)c4c(N)ncnc43)CC2C1 (stereo not shown) [Compound 19, 1-(5-(4-amino-3-(2-phenylbenzo[d]oxazol-6-yl)-1H-pyrazolo[3,4-d]pyrimidin-1-yl)hexahydrocyclopenta[c]pyrrol-2(1H)-yl)prop-2-en-1-one]
11 | < 50 | > 50 | > 50 | < 50 | 37 | > 50 | < 50 | C=CC(=O)N1CC2CC(n3nc(-c4ccc(Oc5ccccc5)c(OC)c4)c4c(N)ncnc43)CC2C1 (stereo not shown) [Compound 12, 1-(5-(4-amino-3-(3-methoxy-4-phenoxyphenyl)-1H-pyrazolo[3,4-d]pyrimidin-1-yl)hexahydrocyclopenta[c]pyrrol-2(1H)-yl)prop-2-en-1-one]
12 | < 50 | > 50 | < 50 | < 50 | 3.5 | < 50 | < 50 | C=CC(=O)N1CC2CC(n3nc(-c4ccc(/C(=N/c5cc(C)ccn5)OC)cc4)c4c(N)ncnc43)CC2C1 (stereo not shown) [Compound 41, (Z)-methyl 4-(1-(2-acryloyloctahydrocyclopenta[c]pyrrol-5-yl)-4-amino-1H-pyrazolo[3,4-d]pyrimidin-3-yl)-N-(4-methylpyridin-2-yl)benzimidate]
13 | < 50 | < 50 | < 50 | < 50 | 1.5 | < 50 | < 50 | C=CS(=O)(=O)N1CC2CC(n3c(=O)n(-c4ccc(Oc5ccccc5)cc4)c4c(N)ncnc43)CC2C1 (stereo not shown) [Compound 33, 6-amino-7-(4-phenoxyphenyl)-9-(2-(vinylsulfonyl)octahydrocyclopenta[c]pyrrol-5-yl)-7H-purin-8(9H)-one]
